One block for each molecule: values may come before it.
Tests used:
[1] = Inhibition of Trypanosoma brucei PTR1; conditions: read-out: Ki(app)
[2] = biological target: Triosephosphate isomerase, glycosomal (Trypanosoma cruzi) (UniProt P52270); test: Inhibition of Trypanosoma cruzi triosephosphate isomerase at 50 uM
Trypanosoma brucei [3] = test: Inhibition of Trypanosoma brucei triosephosphate isomerase at 50 uM
Trypanosoma cruzi [4] = test: Antitrypanosomal activity against Trypanosoma cruzi assessed as growth inhibition; assay type: functional; conditions: read-out: ED50 (the source's name)
[5] = tested on: Trypanosoma brucei rhodesiense; test: Antitrypanosomal activity against Trypanosoma brucei rhodesiense assessed as growth inhibition; assay type: functional; conditions: read-out: ED50 (the source's name)
[6] = Selectivity ratio for human triosephosphate isomerase to Trypanosoma cruzi triosephosphate isomerase
Trypanosoma cruzi [7] = test: Antitrypanosomal activity against epimastigote forms of Trypanosoma cruzi Y assessed as growth inhibition; assay type: functional, organism-based
Trypanosoma brucei [8] = test: Antitrypanosomal activity against bloodstream forms of Trypanosoma brucei assessed as growth inhibition; assay type: functional, organism-based
Cruzipain = Cruzipain (Trypanosoma cruzi, UniProt P25779); test: Inhibition of Trypanosoma cruzi cruzain
Trypanosoma brucei [9] = test: Antitrypanosomal activity against Trypanosoma brucei assessed as growth inhibition; assay type: functional, organism-based

Chain of Cruzipain (P25779 whole entry): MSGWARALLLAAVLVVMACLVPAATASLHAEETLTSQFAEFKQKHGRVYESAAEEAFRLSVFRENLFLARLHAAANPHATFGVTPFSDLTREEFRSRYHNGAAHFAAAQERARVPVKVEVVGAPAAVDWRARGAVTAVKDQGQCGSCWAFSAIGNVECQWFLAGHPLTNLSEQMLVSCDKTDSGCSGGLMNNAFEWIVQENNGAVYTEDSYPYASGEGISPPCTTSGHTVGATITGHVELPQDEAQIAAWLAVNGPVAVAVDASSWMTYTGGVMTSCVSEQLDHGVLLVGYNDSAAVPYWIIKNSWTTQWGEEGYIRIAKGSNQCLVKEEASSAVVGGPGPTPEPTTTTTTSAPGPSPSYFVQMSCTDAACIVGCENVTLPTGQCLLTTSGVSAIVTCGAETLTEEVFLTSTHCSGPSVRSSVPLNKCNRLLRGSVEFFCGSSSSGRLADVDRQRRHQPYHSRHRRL
Chain of Triosephosphate isomerase, glycosomal (Trypanosoma cruzi) (P52270 whole entry): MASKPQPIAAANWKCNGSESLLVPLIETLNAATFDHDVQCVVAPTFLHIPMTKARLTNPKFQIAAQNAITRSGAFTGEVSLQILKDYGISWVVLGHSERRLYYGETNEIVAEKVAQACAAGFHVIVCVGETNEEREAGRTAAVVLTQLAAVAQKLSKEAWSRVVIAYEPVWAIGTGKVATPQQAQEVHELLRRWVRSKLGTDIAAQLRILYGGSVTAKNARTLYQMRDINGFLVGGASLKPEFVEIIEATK

Ki [1]: 7 nM
SMILES: Nc1nc2cccc(-c3ccccc3)c2n1Cc1ccc(Cl)c(Cl)c1

inhibition [2]: > 90% | inhibition (Trypanosoma brucei [3]): > 90%
SMILES: Nc1ccc(-c2nc3ccc(-c4ccc5nc(N)sc5c4)cc3s2)cc1

EC50 (Trypanosoma cruzi [4]): 3000 nM
SMILES: CCCC/C(=N\NC(N)=S)c1ccccc1

EC50 [5]: 70 nM
SMILES: NC(=S)N/N=C(\C=C\c1ccccc1)c1ccccc1

Selectivity ratio [6]: 200
SMILES: Cc1ccc2nc(-c3ccc(N)cc3)sc2c1

IC50 (Trypanosoma cruzi [7]): 300 nM
SMILES: CCC1SC(N/N=C/CCSc2ccccc2)=NC1=O (configuration not stated)

Ki [1]: 47 nM | EC50 (Trypanosoma brucei [8]): 10000 nM
SMILES: CCCOc1cccc2nc(N)n(Cc3ccc(Cl)c(Cl)c3)c12

IC50 (Cruzipain): 400 nM
SMILES: CC1SC(N/N=C/CCCSc2ccccc2)=NC1=O (configuration not stated)

IC50 (Trypanosoma brucei [9]): 70 nM
SMILES: COc1ccccc1C(=O)c1cnc(NC2CCN(C(=O)Nc3ccccc3)CC2)nc1N

IC50 (Cruzipain): 20400 nM
SMILES: Cc1ccc(SCC/C=N/NC2=NC(=O)C(C)S2)cc1 (configuration not stated)
